Experimental data as given in paper PMC12379159 (Journal of Natural Products, 2025).
Changes are numbered by the printed parent chain. Read-outs that look alike come from different tables or passages of the source.

Experiments:
RORγ = test system: RORγ; design: method as in numbers not given; conditions: Figure 4, collected from the literature; ref numbers not given; cited from earlier work
Gal4-hRORγ = molecular target: T1, Gal4-hRORγ (Homo sapiens, UniProt P51449); test: Gal4-RORγ mammalian one-hybrid luciferase assay; assay type: cell-based; conditions: HEK293 cells; for IC50: 18 h treatment, up to 5 μM
T1 construct: Encodes for a hRORγ-LBD:Gal4-DBD fusion protein; expressed in transfected cells; host or cells: HEK293
T1 sequence (P51449 269-508 limits assumed): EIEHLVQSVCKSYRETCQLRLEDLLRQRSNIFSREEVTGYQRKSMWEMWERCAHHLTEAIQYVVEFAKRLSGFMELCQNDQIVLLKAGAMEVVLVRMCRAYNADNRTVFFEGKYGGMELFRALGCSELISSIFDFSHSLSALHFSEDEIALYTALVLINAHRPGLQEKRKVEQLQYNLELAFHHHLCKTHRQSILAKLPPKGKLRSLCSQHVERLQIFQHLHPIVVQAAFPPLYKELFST
Protocol: (§1) For luciferase assays, 8 × 10^6 HEK293 cells were seeded on 150 mm cell culture dishes and incubated for 5 h. Afterward, cells were transfected with the calcium phosphate coprecipitation method using 5 μg of the nuclear receptor (Gal4-hRORγ or full-length human RORγ), 5 μg of a luciferase reporter (pTK-MH100 × 4-LUC for Gal4-hRORγ experiments or RORE-LUC for full-length human RORγ experiments) and 3 μg eGFP-N1 (for assessing transfection efficiency) plasmid DNA and incubated overnight. […] The medium was changed the following day, and cells were further incubated for another four to 5 h before trypsin/EDTA was added to detach them from the dishes. […] RLUs were normalized to relative fluorescence units (RFU) to account for differences in cell number and transfection efficiency and then normalized to the vehicle control. Results are expressed as fold activation relative to the vehicle control.
(§2) Concentration–response data were analyzed in GraphPad Prism version 10 by three-parameter logistic nonlinear regression, with the Hill slope constrained to a theoretical value of −1.0. An IC50 value was determined only for compounds yielding a statistically reliable fit. […] In these cases, only the maximal inhibition achieved at the highest tested concentration (I max(%) at 5 μM) is reported, calculated as follows: Imax(%)=(1−Bottom/Top)×100 (“top” = baseline activity measured at the lowest concentration, “bottom” = residual activity observed at the highest concentration, corresponding to the maximal inhibitory effect).

[1] = test system: Il17a and Il17f (Il17a/f); test: RT-qPCR of Il17a and Il17f in EL-4-mRORγt cells; assay type: cell-based, murine; conditions: then 4.5-h PMA and ionomycin
Protocol: For RT-qPCR assays, 5 × 10^5 EL-4-mRORγt cells were seeded in 500 μL complete DMEM per well of a 24-well plate and treated with the vehicle control, the positive control, or the compounds of interest. After incubation for 20–24 h, cells were stimulated with Cell Activation Cocktail (PMA: 40.5 μM, ionomycin: 669.3 μM; 500X) for 4.5 h. Afterward, total RNA was isolated using the innuPREP RNA Mini Kit 2.0 according to the manufacturer’s instructions. According to the manufacturer’s instructions, 1 μg RNA was reverse-transcribed into cDNA using the High-Capacity cDNA Reverse Transcription Kit. RT-qPCR was performed using the Luna Universal qPCR Master Mix on a LightCycler 480 (Roche Diagnostics, Rotkreuz, Switzerland) according to the manufacturer’s instructions. […] Livak’s 2−ΔΔCt method was employed to determine the expression levels of RORγ target genes. This involved normalizing the target gene expression to the expression levels of the control gene 18s, followed by further normalization to the vehicle control.

full-length human RORγ = molecular target: T2, full-length human RORγ (Homo sapiens, UniProt P51449); test: Full-length RORγ luciferase assay (RORE-LUC reporter); assay type: cell-based
T2 construct: Encodes for the full-length human RORγ; expressed in transfected cells; host or cells: HEK293
T2 sequence (P51449 1-518): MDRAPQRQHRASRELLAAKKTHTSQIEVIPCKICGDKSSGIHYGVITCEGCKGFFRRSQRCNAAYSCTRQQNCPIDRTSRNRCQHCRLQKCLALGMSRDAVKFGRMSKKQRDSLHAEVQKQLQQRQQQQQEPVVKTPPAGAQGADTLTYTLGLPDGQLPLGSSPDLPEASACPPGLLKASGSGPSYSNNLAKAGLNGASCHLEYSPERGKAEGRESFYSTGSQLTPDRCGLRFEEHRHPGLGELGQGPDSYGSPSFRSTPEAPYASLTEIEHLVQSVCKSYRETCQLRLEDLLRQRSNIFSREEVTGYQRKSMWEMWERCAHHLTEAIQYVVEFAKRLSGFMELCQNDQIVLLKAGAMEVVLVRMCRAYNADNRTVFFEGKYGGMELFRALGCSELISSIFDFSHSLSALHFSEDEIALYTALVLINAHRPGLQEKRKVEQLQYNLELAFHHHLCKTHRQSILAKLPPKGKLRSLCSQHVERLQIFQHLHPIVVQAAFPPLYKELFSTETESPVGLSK
Protocol: as §1, §2

hRORγ LBD = molecular target: T3, hRORγ LBD (Homo sapiens, UniProt P51449); test: Thermal stability by nano differential scanning fluorimetry (nanoDSF); assay type: binding; conditions: RORγ-LBD with 4 equiv ligand vs without ligand; mean ± SD
T3 construct: His tag (N, cleaved yes); made in house; host or cells: Escherichia coli BL21 DE3
T3 sequence (P51449 264-518): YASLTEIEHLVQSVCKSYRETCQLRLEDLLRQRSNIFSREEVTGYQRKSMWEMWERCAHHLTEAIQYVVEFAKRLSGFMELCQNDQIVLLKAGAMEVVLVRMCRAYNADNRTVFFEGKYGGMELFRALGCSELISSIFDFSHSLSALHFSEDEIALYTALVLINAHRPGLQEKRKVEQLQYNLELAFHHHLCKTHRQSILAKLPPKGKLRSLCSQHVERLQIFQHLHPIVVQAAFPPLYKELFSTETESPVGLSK
Protocol: Soluble proteins were purified on Ni Hitrap FFcrude column (Cytiva), followed by His tag removal by thrombin (MP Biomedicals) cleavage and by size exclusion chromatography on HiLoad Superdex200 column (Cytiva) equilibrated in 20 mM Tris-HCl pH 7.5, 150 mM NaCl, 1 mM TCEP (Hampton Research). Purity and homogeneity of the hRORγ LBD were assessed by SDS-PAGE. The purified protein was concentrated to 0.5–1.0 mg/mL with an Amicon Ultra 10 kDa MWCO. The aliquots of purified LBD were incubated with 4 equiv ligands or vehicle for thermal stability experiments.
Fluorescence-based thermal experiments were performed using a Prometheus NT.48 (NanoTemper Technologies, Germany) with grade standard capillaries containing 10 μL of RORγLBD with different ligands. […] NanoTemper PR. Stability Analysis v1.0.2 was used to fit the data and determine the melting temperatures Tm.

Gal4-RORγ H479L = molecular target: T4, Gal4-RORγ H479L (Homo sapiens, UniProt P51449, H479L); test: Gal4-RORγ H479L mutant luciferase assay; conditions: 5 μM
T4 sequence (P51449 269-508 H479L limits assumed): T1 sequence (P51449 269-508 limits assumed) with H211L
Protocol: Gal4-hRORγ H323A and H479L mutants were generated using the QuikChange Lightning Site-Directed Mutagenesis Kit according to the manufacturer’s instructions. Briefly, 10 ng template DNA (Gal4-hRORγ) was PCR-amplified with the respective mutagenic forward and reverse primers listed in Table S3, which were designed using the QuikChange Primer Design tool (https://www.agilent.com/store/primerDesignProgram.jsp). […] Two μL of the PCR product were then transformed into XL1-Blue competent E. coli according to a protocol provided by NEB. […] After centrifuging the main culture at 5691g for 10 min, the supernatant was decanted, and plasmid preparation was performed using the PureLink HiPure Plasmid Midiprep Kit according to the manufacturer’s instructions. DNA yields and purities were checked using a NanoDrop 2000c (Thermo Fisher Scientific, Waltham, MA, USA).

[2] = pretreated 20–24 h at indicated concentrations

## CC(C)=CCC[C@H](C)[C@H]1CC[C@H]2C3=C(CC[C@]12C)[C@@]1(C)CC[C@H](O)[C@@](C)(C(=O)O)C1CC3 (stereo partly drawn) [4α-carboxy-4β-methyl-zymosterol]
RORγ
  RORγ inverse agonist or agonist: Agonist

## C=C(C)[C@@H]1CC[C@]2(C=O)CC[C@]3(C)[C@H](CC[C@@H]4[C@@]5(C)CC[C@H](O)C(C)(C)[C@@H]5CC[C@]43C)[C@@H]12 [Betulinaldehyde]
RORγ
  RORγ inverse agonist or agonist: Agonist

## COc1ccc(CC(=O)Nc2cc3oc4ccccc4c3cc2OC)cc1 [Compound 5]
Gal4-hRORγ; 3 μM
  Activity in Gal4-RORγ luciferase assay (initial screen): agonistic activity

## C=C(C)[C@@H]1CC[C@]2(C(=O)O)CC[C@]3(C)[C@H](CC[C@@H]4[C@@]5(C)C/C(=C\c6ccccc6OC)C(=O)C(C)(C)[C@@H]5CC[C@]43C)[C@@H]12 [Compound 15.1]
Gal4-hRORγ
  Imax(%) at 5 μM, Gal4-RORγ luciferase assay: 34%
[1]; [2]
  Il17a/f expression: inactive
full-length human RORγ; HEK293 cells
  Imax(%) at 5 μM, full-length RORγ luciferase assay: 24%
hRORγ LBD
  ΔTm measured with nano differential scanning fluorimetry: 5.9 ± 0.4 °C

## C=C(C)[C@@H]1CC[C@]2(C(=O)O)CC[C@]3(C)[C@H](CC[C@@H]4[C@@]5(C)C/C(=C/c6cccc(I)c6)C(=O)C(C)(C)[C@@H]5CC[C@]43C)[C@@H]12 [Compound 15.2]
Gal4-hRORγ
  Imax(%) at 5 μM, Gal4-RORγ luciferase assay: 58%
  IC50: 3.1 µM
[1]; [2]
  Il17a/f expression: significant and concentration-dependent reduction
full-length human RORγ; HEK293 cells
  Imax(%) at 5 μM, full-length RORγ luciferase assay: 55%
Gal4-RORγ H479L
  Activity on Gal4-RORγ H479L vs WT: loss of activity
hRORγ LBD
  ΔTm measured with nano differential scanning fluorimetry: 2.2 ± 0.5 °C

## C=C(C)[C@@H]1CC[C@]2(C(=O)O)CC[C@]3(C)[C@H](CC[C@@H]4[C@@]5(C)C/C(=C/c6ccccc6)C(=O)C(C)(C)[C@@H]5CC[C@]43C)[C@@H]12 [Compound 15.3]
Gal4-hRORγ
  Imax(%) at 5 μM, Gal4-RORγ luciferase assay: 53%
  IC50: 2.7 µM
[1]; [2]
  Il17a/f expression: significant and concentration-dependent reduction
full-length human RORγ; HEK293 cells
  Imax(%) at 5 μM, full-length RORγ luciferase assay: 67%
full-length human RORγ; HEK293 cells, 18 h treatment, up to 5 μM, read-out: IC50, full-length RORγ luciferase assay
  IC50: > 5 µM
full-length human RORγ; exceeds the highest concentration tested, only an estimate, read-out: Estimated IC50, full-length RORγ luciferase assay
  IC50: 5.7 µM
Gal4-RORγ H479L
  Activity on Gal4-RORγ H479L vs WT: loss of activity
hRORγ LBD
  ΔTm measured with nano differential scanning fluorimetry: 2.8 ± 0.2 °C

## C=C(C)[C@@H]1CC[C@]2(C(=O)OC)CC[C@]3(C)[C@H](CC[C@@H]4[C@@]5(C)C/C(=C/c6ccco6)C(=O)C(C)(C)[C@@H]5CC[C@]43C)[C@@H]12 [Compound 15.4]
Gal4-hRORγ
  Imax(%) at 5 μM, Gal4-RORγ luciferase assay: 0%
[1]; [2]
  Il17a/f expression: slightly but significantly up-regulated
full-length human RORγ; HEK293 cells
  Imax(%) at 5 μM, full-length RORγ luciferase assay: 0%
Gal4-RORγ H479L
  Activity on Gal4-RORγ H479L vs WT: remained inactive
hRORγ LBD
  ΔTm measured with nano differential scanning fluorimetry: 1.1 ± 0.2 °C

## C=C(C)[C@@H]1CC[C@]2(C(=O)NCCCN(C)C)CC[C@]3(C)[C@H](CC[C@@H]4[C@@]5(C)CC[C@H](O)C(C)(C)[C@@H]5CC[C@]43C)[C@@H]12 [Compound 24]
RORγ
  RORγ inverse agonist or agonist: Inverse agonist

## C=C1C[C@]2(C)[C@H]3CC[C@@H]4[C@H]5[C@H](C(=C)C)CC[C@]5(C(=O)NCCCN(C)C)CC[C@@]4(C)[C@]3(C)CC[C@H]2C(C)(C)C1=O [Compound 25]
RORγ
  RORγ inverse agonist or agonist: Inverse agonist

## C[C@@H]1CC[C@@]2(OC1)O[C@H]1C[C@H]3[C@@H]4CC=C5C[C@@H](O)CC[C@]5(C)[C@H]4CC[C@]3(C)[C@H]1[C@@H]2C [Diosgenin]
RORγ
  RORγ inverse agonist or agonist: Inverse agonist

## CC(C)CCC[C@H](CCCC(C)(C)O)[C@H]1CC[C@H]2[C@@H]3CC=C4C[C@@H](O)CC[C@]4(C)[C@H]3CC[C@]12C [Gemini-cholesterol analogue]
RORγ
  RORγ inverse agonist or agonist: Inverse agonist

## OC(c1ccc(-c2ccc(CN3CCN(Cc4ccncc4)CC3)cc2)c(F)c1)(C(F)(F)F)C(F)(F)F [SR2211, reference compound]
[1]; 5 μM, 20–24 h
  Il17a/f expression: significant and reproducible down-regulation

## C[C@H]1[C@H](C)CC[C@]2(C(=O)O)CC[C@]3(C)C(=CC[C@@H]4[C@@]5(C)CC[C@H](O)C(C)(C)[C@@H]5CC[C@]43C)[C@H]12 [Ursolic acid]
RORγ
  RORγ inverse agonist or agonist: Inverse agonist

## C[C@H]1[C@H](C)CC[C@]2(C(=O)O)CC[C@]3(C)C(=CC[C@@H]4[C@@]5(C)CCC(=O)C(C)(C)[C@@H]5CC[C@]43C)[C@H]12 [Ursonic acid]
RORγ
  RORγ inverse agonist or agonist: Inverse agonist
